Assays:
WP2uvApKM101 = test: Ames test; type: cell-based, Escherichia coli
Procedure: (§1) The experiments were performed in triplicate.

TA97a = test: Ames test; type: cell-based, Salmonella typhimurium; conditions: -S9, 50 μg/plate
Procedure: as §1

TA98 = test: Ames test; type: cell-based, Salmonella typhimurium; conditions: TA98, -S9, 50 μg/plate
Procedure: as §1

TA100 = test: Ames test; type: cell-based, Salmonella typhimurium; conditions: TA100, -S9, 1 μg/plate
Procedure: as §1

Mouse spermatozoa = conditions: positive control group, 40 mg/kg cyclophosphamide
mouse bone marrow cells = conditions: positive control group, 40 mg/kg cyclophosphamide
[1] = tested on: bone marrow polychromatic erythrocytes; test: Micronucleus experiment of mammalian bone marrow cells; conditions: positive control group, 40 mg/kg cyclophosphamide

With `Nc1ccc2cc3ccccc3cc2c1` [2-AT, 2-Aminoanthracene] the “Ames test bacterial counts” value (WP2uvApKM101; WP2uvApKM101, +S9, 10 μg/plate) was 546 ± 26.9.

With `CN(C)c1ccc(N=NS(=O)(=O)O)cc1` [DDT, fenaminosulf] the “Ames test bacterial counts” value (TA97a) was 3,451 ± 53.7 and the “Ames test bacterial counts” value (TA98) was 2,985 ± 76.4.

`COS(C)(=O)=O` [MSM, methyl methanesulfonate] was tested, and the “Ames test bacterial counts” value (TA100) was 3,042 ± 69.3 and the “Ames test bacterial counts” value (WP2uvApKM101; WP2uvApKM101, -S9, 1 μg/plate) was 926 ± 45.3.

In the case of `O=P1(N(CCCl)CCCl)NCCCO1` (centres unmarked) [Positive, cyclophosphamide], the “Abnormal ratio (%)” value (Mouse spermatozoa; male ICR mice) is reported as 8.34 ± 0.47%, the “Number of sperm abnormality” value (Mouse spermatozoa; male ICR mice, of 5 × 1,000 sperms observed) is reported as 417 and the “Abnormal sperms counted ratio (%): Amorphous” value (Mouse spermatozoa) is reported as 48.33 ± 4.33%. The “Abnormal sperms counted ratio (%): Banana shape” value (Mouse spermatozoa) was 10.58 ± 1.46%, the “Abnormal sperms counted ratio (%): Kinks tail” value (Mouse spermatozoa) was 5.76 ± 0.94% and the “Abnormal sperms counted ratio (%): Large round head” value (Mouse spermatozoa) was 9.37 ± 1.03%. For the same compound, the “Abnormal sperms counted ratio (%): No hook” value (Mouse spermatozoa) was 10.07 ± 1.23%, the “Abnormal sperms counted ratio (%): Two head” value (Mouse spermatozoa) was 5.52 ± 1.36% and the “Abnormal sperms counted ratio (%): Two tail” value (Mouse spermatozoa) was 4.84 ± 1.99%. The “Chromosome aberration (%)” value (mouse bone marrow cells) was 18.6 ± 7.67%, the “Number of cells with chromosome aberration” value (mouse bone marrow cells; of 5 × 100 cells at metaphase) was 93 and the “PCE micronucleus (‰)” value ([1]; Female mice) was 18.8 ± 1.9 ‰. For the same compound, the PCE/RBC ([1]; Female mice) was 0.5 ± 0.04, the “PCE micronucleus (‰)” value ([1]; Male mice) was 18.8 ± 2.6 ‰ and the PCE/RBC ([1]; Male mice) was 0.51 ± 0.09.
